Experimental data as given in ChEMBL document CHEMBL5579854, “Targeting Relevant HDACs to Support the Survival of Cone Photoreceptors in Inherited Retinal Diseases: Identification of a Potent Pharmacological Tool with In Vitro and In Vivo Efficacy” (J Med Chem, 2024).
pIC50: −log10 of the molar value. Values after ≈ are worked out from the molar mass of the structure shown. Active and inactive are the calls of the source. No cut-off for these calls is given here.

Test system: 661W
Assay: Cytoprotective effect against H2O2-induced oxidative stress in mouse 661W cells assessed as increase in acetylated alpha-tubulin level at 10 uM incubated for 24 hrs followed by H2O2 treatment for 3 hrs by immunofluorescence analysis
Format: functional, cell-based
Details: time 27.0 hrs
With `CN1CCc2c(c3ccccc3n2Cc2ccc(C(=O)NO)cc2)C1` [TUBASTATIN A] the Activity was “Active”.

Molecular target: T1, Protein deacetylase HDAC6 (Homo sapiens, UniProt Q9UBN7)
T1 sequence (Q9UBN7 whole entry): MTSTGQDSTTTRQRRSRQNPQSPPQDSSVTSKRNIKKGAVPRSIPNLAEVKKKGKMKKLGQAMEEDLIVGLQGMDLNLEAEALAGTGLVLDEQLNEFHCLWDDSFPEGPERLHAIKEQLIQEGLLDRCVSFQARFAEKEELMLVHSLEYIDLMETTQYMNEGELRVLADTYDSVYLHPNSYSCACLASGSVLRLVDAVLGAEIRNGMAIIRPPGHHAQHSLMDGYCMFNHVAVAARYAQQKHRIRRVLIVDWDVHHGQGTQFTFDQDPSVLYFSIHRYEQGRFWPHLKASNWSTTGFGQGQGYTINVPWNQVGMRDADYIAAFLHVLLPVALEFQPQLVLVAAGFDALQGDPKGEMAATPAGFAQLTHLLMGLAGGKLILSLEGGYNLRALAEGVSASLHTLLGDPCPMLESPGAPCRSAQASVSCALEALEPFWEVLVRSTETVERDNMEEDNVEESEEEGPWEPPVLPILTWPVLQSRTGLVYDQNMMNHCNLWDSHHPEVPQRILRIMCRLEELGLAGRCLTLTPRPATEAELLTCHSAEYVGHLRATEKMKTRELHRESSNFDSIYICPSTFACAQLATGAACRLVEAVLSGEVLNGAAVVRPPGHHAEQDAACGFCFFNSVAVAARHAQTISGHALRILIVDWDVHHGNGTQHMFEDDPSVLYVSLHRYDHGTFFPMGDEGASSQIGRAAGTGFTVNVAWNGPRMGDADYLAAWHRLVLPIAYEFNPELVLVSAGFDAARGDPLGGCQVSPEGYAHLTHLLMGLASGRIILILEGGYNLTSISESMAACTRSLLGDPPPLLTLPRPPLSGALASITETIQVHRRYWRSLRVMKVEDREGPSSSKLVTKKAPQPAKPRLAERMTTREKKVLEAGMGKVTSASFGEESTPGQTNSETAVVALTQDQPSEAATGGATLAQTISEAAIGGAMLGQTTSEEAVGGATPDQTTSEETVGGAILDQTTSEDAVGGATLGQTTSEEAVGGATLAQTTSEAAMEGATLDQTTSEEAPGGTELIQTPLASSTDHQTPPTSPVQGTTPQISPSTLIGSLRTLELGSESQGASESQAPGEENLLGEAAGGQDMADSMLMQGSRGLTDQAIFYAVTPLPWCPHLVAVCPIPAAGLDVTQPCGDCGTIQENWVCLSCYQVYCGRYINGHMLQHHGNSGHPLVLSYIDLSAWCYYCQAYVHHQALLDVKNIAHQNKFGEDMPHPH
Assay: Inhibition of C-terminal FLAG-tagged full-length recombinant human HDAC6 (1 to 1215 residues) expressed in Sf9 insect cells using a fluorogenic substrate preincubated for 30 mins followed by substrate addition measured after 30 mins by fluorescence based assay
Details: not given
With `O=C(NO)c1ccc(CNC(=S)N2CCc3c(c4ccccc4n3Cc3ccccc3)C2)cc1` the pIC50 was less than 5.00. For `CC1(C)c2ccccc2N(Cc2ccc(C(=O)NO)cc2)C1c1cccnc1` (stereo not drawn), the pIC50 was 7.39.

Molecular target: T2, Histone deacetylase 1 (Homo sapiens, UniProt Q13547)
T2 sequence (Q13547 whole entry, the tested form may be a part): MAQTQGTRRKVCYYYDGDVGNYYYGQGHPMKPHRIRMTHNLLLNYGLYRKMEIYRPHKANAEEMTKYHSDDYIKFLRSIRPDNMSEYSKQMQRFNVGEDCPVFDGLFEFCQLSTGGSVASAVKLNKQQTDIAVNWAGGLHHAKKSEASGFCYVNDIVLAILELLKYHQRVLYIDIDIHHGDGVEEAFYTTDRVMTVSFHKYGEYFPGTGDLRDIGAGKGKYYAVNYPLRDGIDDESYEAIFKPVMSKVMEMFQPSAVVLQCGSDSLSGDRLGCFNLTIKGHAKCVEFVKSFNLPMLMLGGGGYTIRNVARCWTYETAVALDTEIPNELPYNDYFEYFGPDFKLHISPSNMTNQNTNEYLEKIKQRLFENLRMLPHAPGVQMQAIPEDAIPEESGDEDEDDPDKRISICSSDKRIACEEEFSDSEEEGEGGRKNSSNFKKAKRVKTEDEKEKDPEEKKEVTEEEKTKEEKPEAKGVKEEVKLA
Assay: Inhibition of C-terminal 6xHis-tagged full-length recombinant human HDAC1 (1 to 482 residues) expressed in Sf9 insect cells using a fluorogenic substrate preincubated for 30 mins followed by substrate addition measured after 30 mins by fluorescence based assay
Details: not given
`CC1(C)c2ccccc2N(Cc2ccc(C(=O)NO)cc2)C1c1cccnc1` (stereo not drawn) showed a pIC50 of 5.27. For `Cn1c2c(c3ccccc31)CN(Cc1ccc(C(=O)NO)cc1)CC2`, the pIC50 was less than 5.00. Work on `Cn1c2c(c3ccccc31)CN(C(=O)NCc1ccc(C(=O)NO)cc1)CC2` yielded a pIC50 of less than 5.00.

Molecular target: T3, Histone deacetylase 8 (Homo sapiens, UniProt Q9BY41)
T3 sequence (Q9BY41 whole entry): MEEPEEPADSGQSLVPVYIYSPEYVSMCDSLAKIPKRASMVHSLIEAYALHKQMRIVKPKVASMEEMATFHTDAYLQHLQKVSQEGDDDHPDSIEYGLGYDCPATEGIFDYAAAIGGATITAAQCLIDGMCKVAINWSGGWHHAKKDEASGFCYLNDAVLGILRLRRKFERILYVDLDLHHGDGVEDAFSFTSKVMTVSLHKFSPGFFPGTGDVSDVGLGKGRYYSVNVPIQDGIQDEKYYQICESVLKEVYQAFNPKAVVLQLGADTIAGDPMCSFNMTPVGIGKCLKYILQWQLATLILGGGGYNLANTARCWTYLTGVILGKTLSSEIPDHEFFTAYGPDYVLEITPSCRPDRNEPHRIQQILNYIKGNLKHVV
Assay: Inhibition of C-terminal His-tagged full-length recombinant human HDAC8 (1 to 377 residues) expressed in Sf9 insect cells using a fluorogenic substrate preincubated for 30 mins followed by substrate addition measured after 30 mins by fluorescence based assay
Details: not given
`CC1(C)c2ccccc2N(Cc2ccc(C(=O)NO)cc2)C1c1cccnc1` (stereo not drawn) showed a pIC50 of 5.66. With `Cn1c2c(c3ccccc31)CN(C(=O)OCc1ccc(C(=O)NO)cc1)CC2` the pIC50 was less than 5.00.

Molecular target: T4, Histone deacetylase 5 (Homo sapiens, UniProt Q9UQL6)
T4 sequence (Q9UQL6 whole entry, the tested form may be a part): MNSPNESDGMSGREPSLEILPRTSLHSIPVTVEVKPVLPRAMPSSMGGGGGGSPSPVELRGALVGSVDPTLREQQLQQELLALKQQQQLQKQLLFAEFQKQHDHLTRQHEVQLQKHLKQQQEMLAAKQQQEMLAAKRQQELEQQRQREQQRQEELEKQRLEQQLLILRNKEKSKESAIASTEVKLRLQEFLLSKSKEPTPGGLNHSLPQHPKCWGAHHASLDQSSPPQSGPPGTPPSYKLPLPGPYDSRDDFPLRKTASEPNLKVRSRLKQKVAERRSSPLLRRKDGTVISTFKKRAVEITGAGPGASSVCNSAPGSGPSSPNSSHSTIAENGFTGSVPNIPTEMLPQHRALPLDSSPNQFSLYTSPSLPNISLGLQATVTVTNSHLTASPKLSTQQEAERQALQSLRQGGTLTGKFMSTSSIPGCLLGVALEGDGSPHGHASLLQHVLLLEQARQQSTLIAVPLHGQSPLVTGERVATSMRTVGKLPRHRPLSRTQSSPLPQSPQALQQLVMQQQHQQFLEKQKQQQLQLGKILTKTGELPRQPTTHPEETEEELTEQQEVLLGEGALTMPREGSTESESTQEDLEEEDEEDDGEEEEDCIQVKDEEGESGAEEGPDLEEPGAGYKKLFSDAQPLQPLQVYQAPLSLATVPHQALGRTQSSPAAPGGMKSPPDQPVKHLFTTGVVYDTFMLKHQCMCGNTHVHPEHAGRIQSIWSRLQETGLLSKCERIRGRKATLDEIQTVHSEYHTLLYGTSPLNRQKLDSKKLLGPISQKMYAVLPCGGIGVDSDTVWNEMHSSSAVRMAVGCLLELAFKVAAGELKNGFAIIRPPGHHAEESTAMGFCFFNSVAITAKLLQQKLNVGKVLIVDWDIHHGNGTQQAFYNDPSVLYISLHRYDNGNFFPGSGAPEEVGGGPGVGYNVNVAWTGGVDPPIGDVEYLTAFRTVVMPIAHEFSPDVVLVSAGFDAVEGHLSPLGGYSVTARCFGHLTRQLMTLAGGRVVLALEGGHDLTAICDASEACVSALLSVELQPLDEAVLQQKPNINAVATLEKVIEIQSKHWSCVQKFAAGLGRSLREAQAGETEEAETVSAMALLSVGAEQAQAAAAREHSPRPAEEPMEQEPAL
Assay: (§1) Inhibition of C-terminal His-tagged recombinant human HDAC5 catalytic domain (656 to 1122 residues) expressed in baculovirus infected Sf9 insect cells using a fluorogenic substrate preincubated for 30 mins followed by substrate addition measured after 30 mins by fluorescence based assay
Details: not given
`CC1(C)c2ccccc2N(Cc2ccc(C(=O)NO)cc2)C1c1cccnc1` (stereo not drawn) gave a pIC50 of less than 5.00.

Molecular target: T2, Histone deacetylase 1
Assay: Inhibition of C-terminal 6xHis-tagged full-length recombinant human HDAC1 (1 to 482 residues) expressed in Sf9 insect cells using a fluorogenic substrate preincubated for 30 mins followed by substrate addition measured after 30 mins by fluorescence based assay relative to control
Details: time 60.0 min
`Cn1c2c(c3ccccc31)CN(Cc1ccc(C(=O)NO)cc1)CC2` gave an inhibition of 43%. `Cn1c2c(c3ccccc31)CN(C(=O)NCc1ccc(C(=O)NO)cc1)CC2` showed an inhibition of 41%.

Molecular target: T5, Histone deacetylase 8 (Homo sapiens) (UniProt Q9BY41)
T5 sequence (whole entry): T3 sequence (Q9BY41 whole entry)
Assay: Inhibition of C-terminal His-tagged full-length recombinant human HDAC8 (1 to 377 residues) expressed in Sf9 insect cells using a fluorogenic substrate preincubated for 30 mins followed by substrate addition measured after 30 mins by fluorescence based assay relative to control
Details: time 60.0 min
`Cn1c2c(c3ccccc31)CN(C(=O)OCc1ccc(C(=O)NO)cc1)CC2` gave an inhibition of 38%.

Molecular target: T4, Histone deacetylase 5
Assay: as §1, with “assay relative to control” for “assay”
Details: time 60.0 min
`CC1(C)c2ccccc2N(Cc2ccc(C(=O)NO)cc2)C1c1cccnc1` (stereo not drawn) gave an inhibition of 14%.

Test system: not listed separately
Assay: Lipophilicity, logP of compound
Format: physicochemical
Details: octanol/water
Compound `O=C(NO)c1ccc(COC(=O)N2CCC3(CC2)CN(Cc2ccccc2)c2ccccc23)cc1` has a logP of 4.2. With `CC(C)(C)OC(=O)N1CCC2(CC1)CN(Cc1ccc(C(=O)NO)cc1)c1ccccc12` the logP was 2.5. `CCN(CC)Cc1ccc(Cn2c3c(c4ccccc42)CN(C(=O)NCc2ccc(C(=O)NO)cc2)CC3)cc1` showed a logP of 4.08. For `CC1(C)c2ccccc2N(Cc2ccc(C(=O)NO)cc2)C1c1cccnc1` (stereo not drawn), the logP was 2.04. `CC(/C=C/C(=O)NO)=C\[C@@H](C)C(=O)c1ccc(N(C)C)cc1` [TRICHOSTATIN] gave a logP of 2.57. For `Cn1c2c(c3ccccc31)CN(Cc1ccc(C(=O)NO)cc1)CC2`, the logP was 1.97. With `O=C(NO)c1ccc(NC(=O)N2CCc3c(c4ccccc4n3Cc3ccccc3)C2)cc1` the logP was 3.99. In the case of `CN1CCc2c(c3ccccc3n2Cc2ccc(C(=O)NO)cc2)C1` [TUBASTATIN A], the logP was 2.02. Compound `Cn1c2c(c3ccccc31)CN(C(=O)OCc1ccc(C(=O)NO)cc1)CC2` has a logP of 3.2. With `CN1CC2(CCN(Cc3ccc(C(=O)NO)cc3)CC2)c2ccccc21` the logP was 2.1.

Test system: not listed separately
Assay: Solubility of compound
Format: physicochemical
Details: not given
For `O=C(NO)c1ccc(COC(=O)N2CCC3(CC2)CN(Cc2ccccc2)c2ccccc23)cc1`, the solubility was 156 µM (≈ 73.6 µg/mL). `CC(C)(C)OC(=O)N1CCC2(CC1)CN(Cc1ccc(C(=O)NO)cc1)c1ccccc12` gave a solubility of 223 µM (≈ 97.6 µg/mL). For `CCN(CC)Cc1ccc(Cn2c3c(c4ccccc42)CN(C(=O)NCc2ccc(C(=O)NO)cc2)CC3)cc1`, the solubility was 295 µM (≈ 159 µg/mL). `CC1(C)c2ccccc2N(Cc2ccc(C(=O)NO)cc2)C1c1cccnc1` (stereo not drawn) gave a solubility of 285 µM (≈ 106 µg/mL). `Cn1c2c(c3ccccc31)CN(Cc1ccc(C(=O)NO)cc1)CC2` gave a solubility of 200 µM (≈ 67.1 µg/mL). Work on `O=C(NO)c1ccc(NC(=O)N2CCc3c(c4ccccc4n3Cc3ccccc3)C2)cc1` yielded a solubility of 141 µM (≈ 62.1 µg/mL). `CN1CCc2c(c3ccccc3n2Cc2ccc(C(=O)NO)cc2)C1` [TUBASTATIN A] gave a solubility of 231 µM (≈ 77.5 µg/mL). `Cn1c2c(c3ccccc31)CN(C(=O)OCc1ccc(C(=O)NO)cc1)CC2` gave a solubility of 227 µM (≈ 86.1 µg/mL). `CN1CC2(CCN(Cc3ccc(C(=O)NO)cc3)CC2)c2ccccc21` showed a solubility of 97 µM (≈ 34.1 µg/mL).

Test system: not listed separately
Assay: Stability of compound at pH 7.4 measured after 24 hrs
Format: physicochemical
Details: buffer, read-out: Stability
Compound `O=C(NO)c1ccc(COC(=O)N2CCC3(CC2)CN(Cc2ccccc2)c2ccccc23)cc1` has a remaining at 24 h of 64%. Work on `CC(C)(C)OC(=O)N1CCC2(CC1)CN(Cc1ccc(C(=O)NO)cc1)c1ccccc12` yielded a remaining at 24 h of 74%. In the case of `CCN(CC)Cc1ccc(Cn2c3c(c4ccccc42)CN(C(=O)NCc2ccc(C(=O)NO)cc2)CC3)cc1`, the remaining at 24 h was 92%. `CC1(C)c2ccccc2N(Cc2ccc(C(=O)NO)cc2)C1c1cccnc1` (stereo not drawn) showed a remaining at 24 h of 97%. With `Cn1c2c(c3ccccc31)CN(Cc1ccc(C(=O)NO)cc1)CC2` the remaining at 24 h was 94%. `O=C(NO)c1ccc(NC(=O)N2CCc3c(c4ccccc4n3Cc3ccccc3)C2)cc1` showed a remaining at 24 h of 90%. Compound `CN1CCc2c(c3ccccc3n2Cc2ccc(C(=O)NO)cc2)C1` [TUBASTATIN A] has a remaining at 24 h of 75%. `Cn1c2c(c3ccccc31)CN(C(=O)OCc1ccc(C(=O)NO)cc1)CC2` showed a remaining at 24 h of 90%. For `CN1CC2(CCN(Cc3ccc(C(=O)NO)cc3)CC2)c2ccccc21`, the remaining at 24 h was 71%.

Test system: 661W
Assay: Effect on acetylated histone H3 level in H2O2-induced oxidative stress in mouse 661W cells at 10 uM incubated for 24 hrs followed by H2O2 treatment for 3 hrs by Western blot analysis
Format: functional, cell-based
Details: time 27.0 hrs
With `CN1CCc2c(c3ccccc3n2Cc2ccc(C(=O)NO)cc2)C1` [TUBASTATIN A] the Activity was “inactive”.

Test system: 661W
Assay: Effect on acetylated alpha-tubulin level in H2O2-induced oxidative stress in mouse 661W cells at 10 uM incubated for 24 hrs followed by H2O2 treatment for 3 hrs by Western blot analysis
Format: functional, cell-based
Details: time 27.0 hrs
In the case of `CN1CCc2c(c3ccccc3n2Cc2ccc(C(=O)NO)cc2)C1` [TUBASTATIN A], the Activity was “inactive”.
